Several values for one entry are separate records, joined by “and”; a condition that tells them apart may be missing. Equal values may be shown once.
Legend:
Test in all cases: Broth microdilution antibiotic potentiation
Type in all cases: cell-based, Staphylococcus aureus
[1] = tested on: MRSA strain AH-1263; settings: AH-1263
Method in brief: (§1)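 MRSA grown 6 h in CAMHB, subcultured to 5×10^5 CFU/mL, then adjuvant compound added from DMSO stock. Antibiotic serially 2-fold diluted across plate in adjuvant-containing culture, antibiotic-alone as control; plates incubated at 37° C.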

[2] = tested on: MRSA strain AH-2204; settings: AH-2204
Method in brief: as §1

[3] = tested on: MRSA strain ATCC BAA-1556; settings: ATCC BAA-1556
Method in brief: as §1

[4] = Ex. 3 compound at 60 μM (18 and 19 at 30 μM)

O=C(Nc1ccc2[nH]c(-c3cccs3)nc2c1)c1ccco1 [Compound 1 (7729837)]
Ampicillin MIC [1, 4]: 8 µg/mL | Ampicillin MIC fold reduction [1, 4]: (2) | Cefotaxime MIC [1, 4]: 8 µg/mL | Cefotaxime MIC fold reduction [1, 4]: (4) | Oxacillin MIC [1, 4]: 1 µg/mL | Amoxicillin MIC ([1]; with Ex. 3 compound): 8 µg/mL | Cephalothin MIC ([1]; with Ex. 3 compound): 1 µg/mL | Cephalothin MIC fold reduction ([1]; with Ex. 3 compound): 32 | Penicillin G MIC ([1]; with Ex. 3 compound): 4 µg/mL | Penicillin G MIC fold reduction ([1]; with Ex. 3 compound): 2 | Piperacillin MIC ([1]; with Ex. 3 compound): 8 µg/mL | Piperacillin MIC fold reduction ([1]; with Ex. 3 compound): 2 | Ampicillin MIC [2, 4]: 2 µg/mL | Cefotaxime MIC [2, 4]: 8 µg/mL | Cefotaxime MIC fold reduction [2, 4]: (2) | Oxacillin MIC [2, 4]: 0.5 µg/mL and 0.6 µg/mL | Amoxicillin MIC ([2]; with Ex. 3 compound): 2 µg/mL | Cephalothin MIC ([2]; with Ex. 3 compound): 0.125 µg/mL | Cephalothin MIC fold reduction ([2]; with Ex. 3 compound): 32 | Penicillin G MIC ([2]; with Ex. 3 compound): 1 µg/mL | Piperacillin MIC ([2]; with Ex. 3 compound): 4 µg/mL | Ampicillin MIC [3, 4]: 8 µg/mL | Ampicillin MIC fold reduction [3, 4]: (2) | Cefotaxime MIC [3, 4]: 16 µg/mL | Cefotaxime MIC fold reduction [3, 4]: (2) | Oxacillin MIC [3, 4]: 2 µg/mL | Amoxicillin MIC ([3]; with Ex. 3 compound): 8 µg/mL | Cephalothin MIC ([3]; with Ex. 3 compound): 1 µg/mL | Cephalothin MIC fold reduction ([3]; with Ex. 3 compound): 16 | Penicillin G MIC ([3]; with Ex. 3 compound): 2 µg/mL | Piperacillin MIC ([3]; with Ex. 3 compound): 8 µg/mL | Piperacillin MIC fold reduction ([3]; with Ex. 3 compound): 2
